Results: ChEMBL document CHEMBL1142331, “Activation and inhibition of DNA methyltransferases by S-adenosyl-L-homocysteine analogues” (Bioorg Med Chem, 2008)
Active and inactive are the calls of the source. The rule behind the calls is not given here.

Legend:
ER1727 [1] = test: Inhibition of M.HhaI DNA methyltransferase expressed in ER1727 cells at 15 uM after 30 mins; assay type: cell-based; conditions: Haemophilus haemolyticus
Escherichia coli [2] = test: Inhibition of Escherichia coli DNA methyltransferase at 15 uM after 30 mins
Escherichia coli [3] = test: Activation of Escherichia coli DNA methyltransferase upto 20 uM
Escherichia coli [4] = test: Inhibition of Escherichia coli DNA methyltransferase assessed as fluorescence quenching measured
[5] = target: T1, DNA adenine methylase (Escherichia coli K-12) (UniProt P0AEE8); test: Inhibition of Escherichia coli DNA adenine methyltransferase at 15 uM after 30 mins
T1 sequence (whole entry): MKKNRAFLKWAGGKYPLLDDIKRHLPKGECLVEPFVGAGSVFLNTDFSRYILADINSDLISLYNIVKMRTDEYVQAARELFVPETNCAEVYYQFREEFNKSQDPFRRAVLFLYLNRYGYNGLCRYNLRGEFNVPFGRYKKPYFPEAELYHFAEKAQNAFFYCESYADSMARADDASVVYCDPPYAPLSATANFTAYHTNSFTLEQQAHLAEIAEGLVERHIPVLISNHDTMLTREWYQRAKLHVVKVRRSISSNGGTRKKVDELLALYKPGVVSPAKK

Haemophilus haemolyticus = test: Activation of M.HhaI DNA methyltransferase upto 16 uM
ER1727 [6] = test: Inhibition of M.HhaI DNA methyltransferase expressed in ER1727 cells after 30 mins; assay type: cell-based; conditions: Haemophilus haemolyticus
[7] = Inhibition of Escherichia coli DNA methyltransferase measured by dixon plot
Escherichia coli [8] = test: Inhibition of Escherichia coli DNA methyltransferase after 30 mins
[9] = Inhibition of Escherichia coli DNA methyltransferase measured by secondary plot

Activity (Escherichia coli [2])	SMILES	Activity (ER1727 [1])	other results
inactive	CSC[C@H]1O[C@@H](n2cnc3c(N)ncnc32)[C@H](O)[C@@H]1O	inactive	
inactive	Nc1ncnc2c1ncn2[C@@H]1O[C@H](CCl)[C@@H](O)[C@H]1O	inactive	
inactive	O=[N+]([O-])c1cccc2c1ncn2[C@@H]1O[C@H](CO)[C@@H](O)[C@H]1O	inactive	
	Nc1cccc2c1ncn2[C@@H]1O[C@H](CSCCC(=O)O)[C@@H](O)[C@H]1O		Activity (Escherichia coli [3]): Active; Activity (Escherichia coli [4]): 5.66 µM; Activity [5]: Active; Activity (Haemophilus haemolyticus): Active
inactive	C=CCSC[C@H]1O[C@@H](n2cnc3c([N+](=O)[O-])cccc32)[C@H](O)[C@@H]1O	inactive	
	Nc1ncnc2c1ncn2[C@@H]1O[C@H](CSCCC(=O)O)[C@@H](O)[C@H]1O		Activity (Escherichia coli [4]): 22 µM; Activity (ER1727 [6]): Dose-dependent effect; IC50 [7]: 5 µM; Activity [5]: Active; Activity (Escherichia coli [8]): Dose-dependent effect; Ki [9]: 5 µM
Active	Nc1ncnc2c1ncn2[C@@H]1O[C@H](CSCC[C@H](N)C(=O)O)[C@@H](O)[C@H]1O	Active	
inactive	CCOC(=O)CCSC[C@H]1O[C@@H](n2cnc3c(N)ncnc32)[C@H](O)[C@@H]1O	inactive	Activity (Escherichia coli [4]): inactive
inactive	NC(=O)CCSC[C@H]1O[C@@H](n2cnc3c(N)ncnc32)[C@H](O)[C@@H]1O	inactive	

SMILES	Activity (Escherichia coli [2])	Activity (ER1727 [1])	other results
CC#CSC[C@H]1O[C@@H](n2cnc3c(N)ncnc32)[C@H](O)[C@@H]1O	inactive	inactive	
C=C=CSC[C@H]1O[C@@H](n2cnc3c(N)ncnc32)[C@H](O)[C@@H]1O	inactive	inactive	
C#CCSC[C@H]1O[C@@H](n2cnc3c(N)ncnc32)[C@H](O)[C@@H]1O	inactive	inactive	
